Experimental data reported in PubChem BioAssay (NCI).
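Exposure lasted 48 hours, with cells grown in 96-well plates and compounds tested at five concentrations. GI50 is the concentration that inhibits growth by half. TGI is the concentration that stops growth completely.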

Tests used:
Assay in all cases: inhibition of tumour cell growth, NCI panel, 48 h
IGROV1 ovarian = test system: IGROV1 ovarian
MALME-3M melanoma = test system: MALME-3M melanoma
LOX IMVI melanoma = test system: LOX IMVI melanoma
T-47D breast = test system: T-47D breast
SNB-75 CNS = test system: SNB-75 CNS
786-0 renal = test system: 786-0 renal
HL-60(TB) leukemia = test system: HL-60(TB) leukemia
CAKI-1 renal = test system: CAKI-1 renal
SK-MEL-2 melanoma = test system: SK-MEL-2 melanoma
NCI-H460 lung = test system: NCI-H460 lung

| Compound | TGI (IGROV1 ovarian) | TGI (MALME-3M melanoma) | TGI (LOX IMVI melanoma) | TGI (T-47D breast) | TGI (SNB-75 CNS) | TGI (786-0 renal) | TGI (HL-60(TB) leukemia) | TGI (CAKI-1 renal) | TGI (SK-MEL-2 melanoma) | TGI (NCI-H460 lung) | GI50 (IGROV1 ovarian) | GI50 (MALME-3M melanoma) | GI50 (LOX IMVI melanoma) | GI50 (T-47D breast) | GI50 (SNB-75 CNS) | GI50 (786-0 renal) | GI50 (HL-60(TB) leukemia) | GI50 (SK-MEL-2 melanoma) | GI50 (NCI-H460 lung) | GI50 (CAKI-1 renal) |
| --- | --- | --- | --- | --- | --- | --- | --- | --- | --- | --- | --- | --- | --- | --- | --- | --- | --- | --- | --- | --- |
| COC(=O)C1(F)C(=O)NC(=O)NC1O (centres undefined) | > 100 µM | > 100 µM | > 100 µM | > 100 µM | > 100 µM | > 100 µM | > 100 µM | > 100 µM | > 100 µM | > 100 µM | – | – | – | – | – | – | – | – | – | – |
| COc1cccc2c1C(=O)c1c(O)c3c(c(O)c1C2=O)C[C@@](O)(C(=O)CO)C[C@@H]3OC1C[C@H](N)[C@H](O)[C@H](C)O1 (some centres undefined) | 8.58 µM | 0.145 µM | 0.181 µM | 1.06 µM | 0.147 µM | 1.19 µM | 0.593 µM | 4.18 µM | 5.47 µM | > 50 µM | 0.0901 µM | 0.0462 µM | 0.0178 µM | 0.0409 µM | 0.034 µM | 0.0324 µM | 0.078 µM | 0.141 µM | 0.005 µM | – |
| COc1cc(/C=C2\CCC(CN(C)C)C2=O)ccc1OC(=O)c1ccccc1 (centres undefined) | 27.9 µM | 29.5 µM | 13 µM | 7.9 µM | 35 µM | 12.4 µM | 8.71 µM | 32.5 µM | 32.7 µM | 37.7 µM | – | – | – | – | – | – | – | – | – | – |
| O=C(Nc1ccc(Cl)cc1)c1cc(-c2ccc(Cl)cc2)c2sc(=O)[nH]c2n1 | 28.9 µM | 6.25 µM | 10.6 µM | 5.46 µM | 8.03 µM | 20.6 µM | 6.68 µM | 13.1 µM | 3.99 µM | 12.6 µM | 2.83 µM | 2.31 µM | 2.88 µM | 0.584 µM | 1.7 µM | 2.64 µM | 1.27 µM | 1.18 µM | 2.19 µM | 1.95 µM |
| COC(=O)[C@]12CC[C@@H](C)[C@H](C)[C@@H]1C1=CC[C@@H]3[C@@]4(C)C=C(O)C(=O)[C@@]5(C)COC(=C54)C[C@@]3(C)[C@]1(C)CC2 | 29.6 µM | 32.4 µM | 22.4 µM | 20.7 µM | 43.1 µM | 29.7 µM | 19.9 µM | 26.7 µM | 29.6 µM | 28.9 µM | 8.42 µM | 15 µM | 8.85 µM | 3.66 µM | 14.8 µM | 13.9 µM | 4.17 µM | 13.1 µM | 12.4 µM | 9.36 µM |
| Cc1ccc2c(O)c(O)cc(NC(C)CCCN)c2n1 (centres undefined) | 47.7 µM | 41.6 µM | 25.4 µM | 38.3 µM | > 62.7 µM | > 100 µM | 37.8 µM | > 54.7 µM | > 91.9 µM | > 100 µM | 14.2 µM | 18.7 µM | 4.55 µM | 6.57 µM | 24.6 µM | > 100 µM | 10.7 µM | > 45.9 µM | 36.4 µM | 21.8 µM |
| COc1ccc2c(c1)C(c1ccccc1Cl)=Nc1c(n[nH]c1C)N2 | > 25 µM | > 25 µM | > 25 µM | > 25 µM | > 17.3 µM | > 25 µM | > 25 µM | > 25 µM | > 23.4 µM | > 25 µM | > 25 µM | > 25 µM | 14.7 µM | > 17.6 µM | 3.14 µM | > 18.6 µM | > 25 µM | > 11.2 µM | 18.5 µM | > 8.82 µM |
